Results reported in publication PMC10606064, “2-Aminothiazole-Flavonoid Hybrid Derivatives Binding to Tau Protein and Responsible for Antitumor Activity in Glioblastoma” (International Journal of Molecular Sciences, 2023).

Key:
U251 glioblastoma cells = assay: MTT cell viability assay, U251; format: cell-based; conditions: Homo sapiens, U-251, U251, 72 h, mean ± SEM, read-out: IC50 (metabolic activity)
Method: (§1) Cells harvested from sub-confluent monolayers were seeded at 15,000 cells per mL in a 96-well microtiter plate (Cambridge Technology, Labège, France) and cultured for 24 h under standard conditions. Standard medium was then replaced by fresh medium containing no drugs or compounds at different concentrations. The surviving cells were quantified after 72 h by the MTT assay, according to the manufacturer’s instructions. Briefly, 20 µL of 3-(4,5-diMethylThiazol-2-yl)-2,5diphenyl Tetrazolium bromide (MTT) solution at 5 mg.mL^−1 was added to cells for 3 h at 37 °C. The supernatant was discarded and replaced by 100 µL of dimethyl sulfoxide to dissolve formazan crystals. The absorbance was then read at 600 nm by spectrophotometry. For all concentrations of a given compound, cell viability was expressed as the percentage of the ratio between the mean absorbance of treated cells and the mean absorbance of untreated cells. Three independent experiments were performed, and the data were expressed as percentage of survival (using the untreated cells as 100%) and subjected to statistical analysis (n = 3). The IC50 was calculated using the Chou and Talalay method.

U87 glioblastoma cells = assay: MTT cell viability assay, U87; format: cell-based, human; conditions: for IC50: Homo sapiens, U87, 72 h, MTT, mean ± SEM, read-out: IC50 (metabolic activity)
Method: as §1

[1] = target: T1, Tau-induced microtubule assembly (tubulin) (Homo sapiens, UniProt P10636); assay: Turbidimetry of in vitro Tau-induced microtubule assembly; format: biochemical, lamb; conditions: 10 µM tubulin, 5 µM Tau, 2.5–50 µM compound, 37 °C
T1 construct: The full-length human Tau (hTau40) was expressed in a transformed E. coli BL21 (DE3) strain; made in house; host or cells: Tau: E. coli BL21 (DE3); tubulin: purified from lamb brain tissue
T1 sequence (P10636 2-441 isoform P10636-8): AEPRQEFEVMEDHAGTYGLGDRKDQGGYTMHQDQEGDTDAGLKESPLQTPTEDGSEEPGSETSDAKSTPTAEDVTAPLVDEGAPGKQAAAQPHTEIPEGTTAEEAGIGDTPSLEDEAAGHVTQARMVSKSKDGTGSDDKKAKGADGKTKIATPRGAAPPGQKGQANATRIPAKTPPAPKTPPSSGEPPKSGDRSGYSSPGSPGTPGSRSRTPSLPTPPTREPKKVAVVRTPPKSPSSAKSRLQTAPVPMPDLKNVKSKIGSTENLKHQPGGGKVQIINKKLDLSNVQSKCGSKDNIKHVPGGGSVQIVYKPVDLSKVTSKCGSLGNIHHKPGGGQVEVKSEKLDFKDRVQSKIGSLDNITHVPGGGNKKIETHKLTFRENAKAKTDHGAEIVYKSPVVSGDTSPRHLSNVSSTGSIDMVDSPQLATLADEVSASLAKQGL
Method: The polymerization of tubulin was monitored by measuring the apparent absorbance at 350 nm using a Beckman DU 7400 spectrophotometer at 37 °C. Tubulin at a final concentration of 10 µM was mixed with compounds at the indicated concentration and immediately placed into the spectrometer chamber. When the signal was stable, Tau at a final concentration of 5 µM was added to induce microtubule formation. Measurements were continued until turbidity values reached a plateau.

U87 shCTRL cells = assay: Microtubule network analysis (alpha-tubulin immunofluorescence), U87 shCTRL; format: cell-based, human
Method: Cells were then fixed in 4% formaldehyde (in PBS pH 7.4) for 20 min at RT, permeabilized with PBS-Triton X-100 0.5% for 10 min at RT. Immunostaining was carried out overnight at 4 °C with a primary anti-citrate synthase antibody (dilution 1:400 in PBS-BSA 3%; SC390693; SantaCruz Biotechnologies, Heidelberg, Germany). The following day, the cells were washed then incubated with anti-mouse secondary antibody (dilution 1:800 in PBS-BSA 3%; A-11029; Invitrogen) and TRITC-phalloidin (dilution 1:2500 in PBS-BSA 3%; P1951; Sigma-Aldrich, Saint-Quentin-Fallavier, France) for 1 h at RT in the dark. For the microtubule network, the same protocol for mitochondria labeling was carried out by replacing with primary anti-α-tubulin antibody (dilution 1:400 in PBS-BSA 1% from a 1 mg/mL solution; monoclonal antibody, clone DM1A, Sigma-Aldrich, Saint-Quentin-Fallavier, France). Next, cells were washed in PBS and cover glasses were mounted with a drop of ProLong® anti-fade solution (Invitrogen). Mitochondria and cytoskeletons were imaged using a confocal laser scanning microscope (CLSM) Leica SP5 with a Leica inverted microscope, equipped with a Plan-Apochromat 63×oil immersion objective (NA = 1.4). Each image was recorded with the CLSM’s spectral mode selecting specific domains of the emission spectrum. The Alexafluor488 and FITC fluorophores were excited at 488 nm with an argon laser, and fluorescence emission was collected between 496 nm and 535 nm. The TRITC fluorophore was excited at 543 nm with a helium–neon laser, and fluorescence was collected between 560 and 620 nm. The public-domain Fiji v1.54f software was used for image analysis.
The analyses of mitochondria and microtubule networks were performed using, respectively, the ‘Mitochondria analyzer’ plugin for Fiji v1.54f software and the method described in our earlier work. Briefly, a series of images were transferred to the software and corrected for background fluorescence intensity contribution. Next, the surface of 50 single cells was measured by considering the cell shape as the boundary of labelling of actin or α-tubulin cytoskeletons (respectively for measurement on mitochondria or microtubules). Then, the mitochondria elongation and mean branch junction per mitochondria parameters, and the surface of the microtubule network, were measured by performing systematically the Otsu method to reduce all gray-level images to binary images. Note that the Otsu plugin in ImageJ is an algorithm which searches for the threshold minimizing the intra-class variance of pixel intensities, defined as a weighted sum of variances of the two classes; the local set is a circular region of interest, and the central pixel is tested against the Otsu threshold found for that region. Moreover, the ratios of microtubules on cell surfaces were calculated as percentages.

U87 shTau cells = assay: Mitochondria network analysis (citrate synthase immunofluorescence), U87 shTau; format: cell-based, human; conditions: 5 µM
Method: For indirect immunofluorescence of mitochondria, 10^4 cells were plated on cover glass and incubated for 24 h with compounds. Cells were then fixed in 4% formaldehyde (in PBS pH 7.4) for 20 min at RT, permeabilized with PBS-Triton X-100 0.5% for 10 min at RT. Immunostaining was carried out overnight at 4 °C with a primary anti-citrate synthase antibody (dilution 1:400 in PBS-BSA 3%; SC390693; SantaCruz Biotechnologies, Heidelberg, Germany). […] Each image was recorded with the CLSM’s spectral mode selecting specific domains of the emission spectrum. The Alexafluor488 and FITC fluorophores were excited at 488 nm with an argon laser, and fluorescence emission was collected between 496 nm and 535 nm. The TRITC fluorophore was excited at 543 nm with a helium–neon laser, and fluorescence was collected between 560 and 620 nm. […]
The analyses of mitochondria and microtubule networks were performed using, respectively, the ‘Mitochondria analyzer’ plugin for Fiji v1.54f software and the method described in our earlier work. Briefly, a series of images were transferred to the software and corrected for background fluorescence intensity contribution. Next, the surface of 50 single cells was measured by considering the cell shape as the boundary of labelling of actin or α-tubulin cytoskeletons (respectively for measurement on mitochondria or microtubules). […]

[2] = 1.25 µM, 24 h, untreated 39 ± 5%

| IC50 (U251 glioblastoma cells) | IC50 (U87 glioblastoma cells) | effect on turbidity time course of Tau-induced microtubule assembly [1] | IC50 value fold lower than 1 (U87 glioblastoma cells; U87 cell line) | Compound | ratio of microtubule network surface to total cell surface (U87 shCTRL cells; [2]) | ratio of microtubule network surface to total cell surface (U87 shCTRL cells; 5 µM, 8 h (maximal)) | ratio of microtubule network surface to total cell surface (U87 shCTRL cells; 20 µM, 24 h, untreated 39 ± 5%) | impact on the mitochondria networks (U87 shTau cells) |
| --- | --- | --- | --- | --- | --- | --- | --- | --- |
| > 100 µM | > 100 µM | no effect on the turbidity time course | – | Nc1nc2ccc3oc(C(=O)O)cc(=O)c3c2s1 [Compound 5] | no effect | no effect on microtubule networks | no effect | none of the compounds had an impact |
| 1.7 ± 0.5 µM | 1.9 ± 0.7 µM | no effect on the turbidity time course | up to 10 fold | Nc1nc2ccc3oc(-c4cccc(Oc5ccccc5)c4)cc(=O)c3c2s1 [Compound 2, 2-amino-7-(3-phenoxyphenyl)-9H-chromeno [6,5-d]thiazol-9-one] | 42.2 ± 6.7% | 44.1 ± 3.8% | 43.2 ± 9.3% | none of the compounds had an impact |
